In ChEMBL document CHEMBL5316337, “Critical Role of Position 10 Residue in the Polymyxin Antimicrobial Activity” (J Med Chem, 2023):
≈ marks a conversion by molar mass, not a printed value.

Experiments:
Assay type in all cases: functional
Klebsiella pneumoniae [1] = assay: Antibacterial activity against Carbapenem-resistant Klebsiella pneumoniae FADD1-KP065 clinical isolates assessed as reduction in bacterial growth by broth microdilution method
Klebsiella pneumoniae [2] = assay: Antibacterial activity against Carbapenem-resistant Klebsiella pneumoniae FADD1-KP032 clinical isolates assessed as reduction in bacterial growth by broth microdilution method
Enterobacter cloacae [3] = assay: Antibacterial activity against polymyxin-susceptible Enterobacter cloacae FADD1-EC001 clinical isolates assessed as reduction in bacterial growth by broth microdilution method
Acinetobacter baumannii [4] = assay: Antibacterial activity against polymyxin-susceptible Acinetobacter baumannii ATCC 19606 clinical isolates assessed as reduction in bacterial growth by broth microdilution method
Acinetobacter baumannii [5] = assay: Antibacterial activity against Carbapenem-resistant Acinetobacter baumannii FADD1-AB030 clinical isolates assessed as reduction in bacterial growth by broth microdilution method
Pseudomonas aeruginosa [6] = assay: Antibacterial activity against Carbapenem-resistant Pseudomonas aeruginosa FADD1-PA001 clinical isolates assessed as reduction in bacterial growth by broth microdilution method
Acinetobacter baumannii [7] = assay: Antibacterial activity against Carbapenem-resistant Acinetobacter baumannii FADD1-AB034 clinical isolates assessed as reduction in bacterial growth by broth microdilution method
Enterobacter cloacae [8] = assay: Antibacterial activity against polymyxin-susceptible Enterobacter cloacae FADD1-EC006 clinical isolates assessed as reduction in bacterial growth by broth microdilution method
Klebsiella pneumoniae [9] = assay: Antibacterial activity against Carbapenem-resistant Klebsiella pneumoniae FADD1-KP022 clinical isolates assessed as reduction in bacterial growth by broth microdilution method
Pseudomonas aeruginosa [10] = assay: Antibacterial activity against polymyxin-susceptible Pseudomonas aeruginosa FADD1-PA038 clinical isolates assessed as reduction in bacterial growth by broth microdilution method
Acinetobacter baumannii [11] = assay: Antibacterial activity against polymyxin-susceptible Acinetobacter baumannii ATCC 17978 clinical isolates assessed as reduction in bacterial growth by broth microdilution method
Enterobacter cloacae [12] = assay: Antibacterial activity against polymyxin-susceptible Enterobacter cloacae FADD1-EC003 clinical isolates assessed as reduction in bacterial growth by broth microdilution method
Klebsiella pneumoniae [13] = assay: Antibacterial activity against polymyxin-susceptible Klebsiella pneumoniae ATCC 700721 clinical isolates assessed as reduction in bacterial growth by broth microdilution method
Pseudomonas aeruginosa [14] = assay: Antibacterial activity against Carbapenem-resistant Pseudomonas aeruginosa FADD1-PA022 clinical isolates assessed as reduction in bacterial growth by broth microdilution method
Pseudomonas aeruginosa [15] = assay: Antibacterial activity against polymyxin-susceptible Pseudomonas aeruginosa FADD1-PA025 clinical isolates assessed as reduction in bacterial growth by broth microdilution method
Klebsiella pneumoniae [16] = assay: Antibacterial activity against Carbapenem-resistant Klebsiella pneumoniae BM1 clinical isolates assessed as reduction in bacterial growth by broth microdilution method
Pseudomonas aeruginosa [17] = assay: Antibacterial activity against polymyxin-susceptible Pseudomonas aeruginosa ATCC 27853 clinical isolates assessed as reduction in bacterial growth by broth microdilution method

Row | SMILES | MIC (Klebsiella pneumoniae [1]) | MIC (Klebsiella pneumoniae [2]) | MIC (Enterobacter cloacae [3]) | MIC (Acinetobacter baumannii [4]) | MIC (Acinetobacter baumannii [5]) | MIC (Pseudomonas aeruginosa [6]) | MIC (Acinetobacter baumannii [7]) | MIC (Enterobacter cloacae [8]) | MIC (Klebsiella pneumoniae [9]) | MIC (Pseudomonas aeruginosa [10]) | MIC (Acinetobacter baumannii [11]) | MIC (Enterobacter cloacae [12]) | MIC (Klebsiella pneumoniae [13]) | MIC (Pseudomonas aeruginosa [14]) | MIC (Pseudomonas aeruginosa [15]) | MIC (Klebsiella pneumoniae [16]) | MIC (Pseudomonas aeruginosa [17])
1 | CC[C@H](C)CCCCC(=O)N[C@@H](CCN)C(=O)N[C@H](C(=O)N[C@@H](CCN)C(=O)N[C@H]1CCNC(=O)[C@H](CC(N)=O)NC(=O)[C@H](CCN)NC(=O)[C@H](CCN)NC(=O)[C@H](CC(C)C)NC(=O)[C@@H](Cc2ccccc2)NC(=O)[C@H](CCN)NC1=O)[C@@H](C)O | 8 µg/mL (≈ 6.58 µM) | > 32 µg/mL | > 32 µg/mL | > 32 µg/mL | > 32 µg/mL | > 32 µg/mL | > 32 µg/mL | > 32 µg/mL | 8 µg/mL (≈ 6.58 µM) | > 32 µg/mL | 16 µg/mL (≈ 13.2 µM) | 32 µg/mL (≈ 26.3 µM) | > 32 µg/mL | 1 µg/mL (≈ 0.822 µM) | 4 µg/mL (≈ 3.29 µM) | > 32 µg/mL | 32 µg/mL (≈ 26.3 µM)
2 | CC[C@H](C)CCCCC(=O)N[C@@H](CCN)C(=O)N[C@H](C(=O)N[C@@H](CCN)C(=O)N[C@H]1CCNC(=O)[C@H](C(C)N=[N+]=[N-])NC(=O)[C@H](CCN)NC(=O)[C@H](CCN)NC(=O)[C@H](CC(C)C)NC(=O)[C@@H](Cc2ccccc2)NC(=O)[C@H](CCN)NC1=O)[C@@H](C)O (some centres not stated) | 1 µg/mL (≈ 0.814 µM) | 2 µg/mL (≈ 1.63 µM) | 8 µg/mL (≈ 6.51 µM) | 2 µg/mL (≈ 1.63 µM) | 0.5 µg/mL (≈ 0.407 µM) | 1 µg/mL (≈ 0.814 µM) | 2 µg/mL (≈ 1.63 µM) | 32 µg/mL (≈ 26 µM) | 1 µg/mL (≈ 0.814 µM) | 4 µg/mL (≈ 3.26 µM) | 2 µg/mL (≈ 1.63 µM) | 4 µg/mL (≈ 3.26 µM) | 4 µg/mL (≈ 3.26 µM) | 1 µg/mL (≈ 0.814 µM) | 1 µg/mL (≈ 0.814 µM) | 2 µg/mL (≈ 1.63 µM) | 1 µg/mL (≈ 0.814 µM)
3 | CC[C@H](C)CCCCC(=O)N[C@@H](CCN)C(=O)N[C@H](C(=O)N[C@@H](CCN)C(=O)N[C@H]1CCNC(=O)[C@H](C(C)C)NC(=O)[C@H](CCN)NC(=O)[C@H](CCN)NC(=O)[C@H](CC(C)C)NC(=O)[C@@H](Cc2ccccc2)NC(=O)[C@H](CCN)NC1=O)[C@@H](C)O | 1 µg/mL (≈ 0.832 µM) | 1 µg/mL (≈ 0.832 µM) | 4 µg/mL (≈ 3.33 µM) | 4 µg/mL (≈ 3.33 µM) | 2 µg/mL (≈ 1.66 µM) | 1 µg/mL (≈ 0.832 µM) | 4 µg/mL (≈ 3.33 µM) | 16 µg/mL (≈ 13.3 µM) | 0.25 µg/mL (≈ 0.208 µM) | 2 µg/mL (≈ 1.66 µM) | 4 µg/mL (≈ 3.33 µM) | 2 µg/mL (≈ 1.66 µM) | 8 µg/mL (≈ 6.66 µM) | 1 µg/mL (≈ 0.832 µM) | 1 µg/mL (≈ 0.832 µM) | 1 µg/mL (≈ 0.832 µM) | 1 µg/mL (≈ 0.832 µM)
4 | CC[C@H](C)CCCCC(=O)N[C@@H](CCN)C(=O)N[C@H](C(=O)N[C@@H](CCN)C(=O)N[C@H]1CCNC(=O)[C@H](COC)NC(=O)[C@H](CCN)NC(=O)[C@H](CCN)NC(=O)[C@H](CC(C)C)NC(=O)[C@@H](Cc2ccccc2)NC(=O)[C@H](CCN)NC1=O)[C@@H](C)O | 1 µg/mL (≈ 0.831 µM) | 2 µg/mL (≈ 1.66 µM) | 8 µg/mL (≈ 6.65 µM) | 8 µg/mL (≈ 6.65 µM) | 1 µg/mL (≈ 0.831 µM) | 2 µg/mL (≈ 1.66 µM) | 4 µg/mL (≈ 3.32 µM) | 32 µg/mL (≈ 26.6 µM) | 0.25 µg/mL (≈ 0.208 µM) | 8 µg/mL (≈ 6.65 µM) | 2 µg/mL (≈ 1.66 µM) | 8 µg/mL (≈ 6.65 µM) | 4 µg/mL (≈ 3.32 µM) | 1 µg/mL (≈ 0.831 µM) | 2 µg/mL (≈ 1.66 µM) | 1 µg/mL (≈ 0.831 µM) | 0.5 µg/mL (≈ 0.415 µM)
5 | CC[C@H](C)CCCCC(=O)N[C@@H](CCN)C(=O)N[C@H](C(=O)N[C@@H](CCN)C(=O)N[C@H]1CCNC(=O)[C@H](C(C)(C)C)NC(=O)[C@H](CCN)NC(=O)[C@H](CCN)NC(=O)[C@H](CC(C)C)NC(=O)[C@@H](Cc2ccccc2)NC(=O)[C@H](CCN)NC1=O)[C@@H](C)O | 4 µg/mL (≈ 3.29 µM) | 2 µg/mL (≈ 1.65 µM) | 8 µg/mL (≈ 6.58 µM) | 8 µg/mL (≈ 6.58 µM) | 4 µg/mL (≈ 3.29 µM) | 2 µg/mL (≈ 1.65 µM) | 4 µg/mL (≈ 3.29 µM) | 8 µg/mL (≈ 6.58 µM) | 1 µg/mL (≈ 0.823 µM) | 4 µg/mL (≈ 3.29 µM) | 4 µg/mL (≈ 3.29 µM) | 4 µg/mL (≈ 3.29 µM) | 8 µg/mL (≈ 6.58 µM) | 2 µg/mL (≈ 1.65 µM) | 2 µg/mL (≈ 1.65 µM) | 8 µg/mL (≈ 6.58 µM) | 2 µg/mL (≈ 1.65 µM)
6 | CC[C@H](C)CCCCC(=O)N[C@@H](CCN)C(=O)N[C@H](C(=O)N[C@@H](CCN)C(=O)N[C@H]1CCNC(=O)[C@@H]([C@H](C)O)NC(=O)[C@H](CCN)NC(=O)[C@H](CCN)NC(=O)[C@H](CC(C)C)NC(=O)[C@@H](Cc2ccccc2)NC(=O)[C@H](CCN)NC1=O)[C@@H](C)O | > 32 µg/mL | > 32 µg/mL | > 32 µg/mL | > 32 µg/mL | > 32 µg/mL | > 32 µg/mL | > 32 µg/mL | > 32 µg/mL | > 32 µg/mL | > 32 µg/mL | 4 µg/mL (≈ 3.32 µM) | > 32 µg/mL | > 32 µg/mL | 2 µg/mL (≈ 1.66 µM) | 16 µg/mL (≈ 13.3 µM) | > 32 µg/mL | 32 µg/mL (≈ 26.6 µM)
